Key:
[1] = tested on: AChE mRNA (SH-SY5Y cells); assay: AChE mRNA expression in SH-SY5Y cell line (qRT-PCR, FIGS. 2 to 4); assay type: cell-based, human
Experimental: Specifically, the SH-SY5Y cell line was cultured in a 6-well plate (6×10^5/well) using high-glucose Dulbecco's modified Eagle medium (DMEM) added with 10% fetal bovine serum and penicillin-streptomycin. SH-SY5Y cells were treated with the donepezil at final concentrations of 10, 20, 30, 40 (15.2 μg/ml) μM, or the rivastigmine at 0.01, 0.1, 0.5, 1, 5 (1.25 μg/ml) μM and cultured for 24 hours, and then, a total RNA was extracted from each cell using TRIzol, and cDNA was synthesized using a SuperScriptIII cDNA synthesis kit. Quantitative real-time PCR (qRT-PCR) was performed using the synthesized cDNA and primers and SYBR Green in Table 3 below using QuantStudio 3. In order to confirm amplification and accumulation of a target gene in real time, the qRT-PCR was performed under a condition that a cycle of 95° C. for 15 seconds and 60° C. for 1 minute was reacted 40 times after an initial denaturation reaction was performed at 50° C. for 2 minutes and 95° C. for 10 minutes.
A gene expression level amplified by the Comparative Ct Method which is one of methods for quantifying a specific gene expression level was calculated, and analysis results are shown in FIGS. 2 to 4.
[Relational Expression of AChE mRNA Expression Level Analysis for Each Sample]
ΔCt value=Ct value of AChE in each sample−Ct value of reference gene (GAPDH) in the sample.
(Here, Ct refers to a cycle number in which amplification begins to increase clearly during a PCR process.)
Specifically, the SH-SY5Y cell line was cultured in a 6-well plate (6×10^5/well) using DMEM added with 10% fetal bovine serum and penicillin-streptomycin. Gene expression comparative analysis was performed by treating the SH-SY5Y cells with donepezil alone or with donepezil and rivastigmine in combination and performing qRT-PCR as in the previous experiment method.
Specifically, the gene expression comparative analysis was performed by treating the SH-SY5Y cells with donepezil 20 μM alone and with donepezil 20 μM and rivastigmine 0.1, 0.5, 1, and 5 μM as a final concentration in combination and performing qRT-PCR as in the previous experiment method.

AChE mRNA (APP-H4 cells) = assay: AChE mRNA expression in APP-H4 cell line (qRT-PCR, FIGS. 5 and 6); assay type: cell-based, human; conditions: 24 h
From the text: An APP-H4 cell line is known as a dementia model cell line in which an abnormal segment of Amyloid Precursor Protein (APP) is increased by β-secretase and Alzheimer's disease and hyperphosphorylation of a Tau protein are induced by introducing a Swedish mutation of APP into human neuroglioblastoma H4 cells. In order to re-verify the effect of combined administration of the donepezil and the rivastigmine on the AChE mRNA expression and the drug combination ratio confirmed through a previous study, APP-H4 cells were treated with the donepezil and the rivastigmine alone or in combination as active ingredients, and the AChE gene expression was analyzed.
Specifically, the APP-H4 cell line was cultured in DMEM including 10% fetal bovine serum and gentamycine. Gene expression comparative analysis was performed by treating cells with donepezil 50 (19 μg/ml) μM alone or with donepezil 50 μM and rivastigmine 1 or 5 (1.25 μg/ml) μM as a final concentration in combination and performing qRT-PCR as in the previous experiment method (primers are shown in Table 4 below).
APP-H4 cells were treated with the donepezil and the rivastigmine alone or in combination and cultured for 24 hours, and then the AChE mRNA expression level was measured by qRT-PCR method.

AChE = conditions: patients taking donepezil in a long-term; cited from earlier work

Compound | AChE mRNA expression ([1]; rivastigmine alone, 0.01 to 5 μM, 24 h, FIG. 2) | AChE mRNA expression (AChE mRNA (APP-H4 cells); rivastigmine alone, 0.5, 1, or 10 μM, FIG. 5) | AChE mRNA expression ([1]; 5 μM (1.9 μg/ml) donepezil alone, FIG. 3) | AChE mRNA expression ([1]; donepezil alone, beyond 20 μM (30, 40 μM), 24 h, FIG. 2) | AChE mRNA expression ([1]; donepezil alone, up to 20 μM, 24 h, FIG. 2) | AChE expression (AChE mRNA (APP-H4 cells); 50 μM donepezil, FIG. 6) | AChE activity and quantity (AChE)
CCN(C)C(=O)Oc1cccc([C@H](C)N(C)C)c1 [rivastigmine] | no statistically significant change was observed | no effect |  |  |  |  | 
COc1cc2c(cc1OC)C(=O)C(CC1CCN(Cc3ccccc3)CC1)C2 (stereo not shown) [donepezil] |  |  | increased | no difference | dependently increased | increased | increases

Source: patent US20260335298A1, “PHARMACEUTICAL COMBINATION CONTAINING DONEPEZIL AND RIVASTIGMINE FOR PREVENTING, ALLEVIATING OR TREATING DEMENTIA OR COGNITIVE IMPAIRMENT, AND PREPARATION METHOD THEREFOR” (G2GBIO, INC., priority 2022, published 2026)
